The record followed here is PubChem BioAssay (NCI).

Several values for one entry are separate records, joined by “and”; a condition that tells them apart may be missing. Identical values can stand only once.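 Following 48 hours of exposure in 96-well plates, responses at five concentrations were used to interpolate endpoints linearly. GI50 is the concentration that inhibits growth by half. Definition used: TGI = concentration required for complete inhibition of growth.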

Test systems include HCC-2998 colon; HCT-15 colon; HS 578T breast; MCF7 breast; MDA-MB-231 breast; OVCAR-5 ovarian; SF-295 CNS; SK-MEL-28 melanoma; SK-MEL-5 melanoma; TK-10 renal.
Common to all, as to test: DTP human tumour cell line panel, 48 h

In the case of `Cc1cc2c3c([n+](C)c4ccc(F)cc4c3c1)-c1cc(F)ccc1N2C`, the GI50 with HCC-2998 colon is 3990 nM; with HCT-15 colon, greater than 100000 nM; with HS 578T breast, 2400 nM; with MCF7 breast, 14300 nM; with MDA-MB-231 breast, 24300 nM; in the assay on OVCAR-5 ovarian, greater than 100000 nM. Also, the GI50 is 7540 nM in the assay on SF-295 CNS, 9770 nM in the assay with SK-MEL-28 melanoma, 5290 nM in the assay with SK-MEL-5 melanoma and 51800 nM in the assay on TK-10 renal. The TGI is 16500 nM in the assay on HCC-2998 colon; greater than 100 µM in the assay on HCT-15 colon; 9.77 µM with HS 578T breast; 44.6 µM with MCF7 breast; 85.3 µM with MDA-MB-231 breast; greater than 100 µM in the assay with OVCAR-5 ovarian. Further, the TGI in the assay on SF-295 CNS is greater than 100 µM; in the assay on SK-MEL-28 melanoma it was 34.9 µM; with SK-MEL-5 melanoma, 22.1 µM; with TK-10 renal it was greater than 100 µM.

As to `c1cc(C2CCCCC2)ccc1-c1cnc2nonc2n1`, the GI50 is 1470 nM in the assay with HCC-2998 colon; 438 nM in the assay with HCT-15 colon; 1020 nM in the assay on HS 578T breast; 393 nM in the assay with MCF7 breast; 1330 nM with MDA-MB-231 breast; 1700 nM in the assay with OVCAR-5 ovarian. For the same molecule, the GI50 with SF-295 CNS is 1640 nM; in the assay on SK-MEL-28 melanoma, 1360 nM; in the assay on SK-MEL-5 melanoma, 1290 nM; in the assay with TK-10 renal, 1280 nM. Also, the TGI with HCC-2998 colon is 2940 nM; in the assay with HCT-15 colon, 2.26 µM; with HS 578T breast, greater than 58.3 µM; in the assay with MCF7 breast it was 3.21 µM; with MDA-MB-231 breast, 4.01 µM; with OVCAR-5 ovarian it was 4.04 µM. The TGI in the assay on SF-295 CNS is 4.32 µM; in the assay on SK-MEL-28 melanoma, 2.99 µM; in the assay on SK-MEL-5 melanoma, 2.62 µM; with TK-10 renal, 2.79 µM.

On to `CC(=O)O[C@@H]1C2=C(C)C3(CC3)[C@@](C)(O)C(=O)C2=C[C@@]1(C)CO`, for which the GI50 with HCC-2998 colon is 496 nM; in the assay with HCT-15 colon it was 423 nM; in the assay on HS 578T breast it was 1680 nM; in the assay with MCF7 breast, 371 nM; in the assay on MDA-MB-231 breast, 1800 nM; in the assay with OVCAR-5 ovarian it was 427 nM. In addition, the GI50 is 406 nM in the assay with SF-295 CNS, 1980 nM in the assay with SK-MEL-28 melanoma, 1730 nM with SK-MEL-5 melanoma and 2600 nM in the assay on TK-10 renal. The TGI was 1890 nM with HCC-2998 colon; 10.1 µM in the assay on HCT-15 colon; 5.75 µM in the assay on HS 578T breast; 3.28 µM in the assay on MCF7 breast; 8.92 µM in the assay on MDA-MB-231 breast; 9.87 µM in the assay with SF-295 CNS. The values for the TGI with SK-MEL-28 melanoma, in the assay on SK-MEL-5 melanoma and in the assay with TK-10 renal were 4.52 µM, 3.2 µM and greater than 100 µM, respectively.

On to `CC(C)(C)C(=O)c1c(C(F)(F)F)n([O-])c2cc(Cl)c(Cl)cc2[n+]1=O`, for which the GI50 in the assay with HCC-2998 colon was 172 nM; in the assay on HCT-15 colon it was 257 nM; with HS 578T breast, 160 nM; in the assay on MCF7 breast, 168 nM; in the assay on MDA-MB-231 breast, 1440 nM; with OVCAR-5 ovarian, 642 nM. The GI50 in the assay with SF-295 CNS was 505 nM; in the assay with SK-MEL-28 melanoma, 618 nM; in the assay with SK-MEL-5 melanoma it was 277 nM; with TK-10 renal, 842 nM. The TGI in the assay on HCC-2998 colon worked out at 465 nM; with HCT-15 colon it was 0.652 µM; in the assay with HS 578T breast, 0.554 µM; in the assay on MCF7 breast, 0.566 µM; with MDA-MB-231 breast it was 2.9 µM; in the assay on OVCAR-5 ovarian, 2.19 µM. Moreover, the TGI in the assay with SF-295 CNS is 0.973 µM; in the assay with SK-MEL-28 melanoma, 1.6 µM; in the assay with SK-MEL-5 melanoma it was 1.1 µM; in the assay with TK-10 renal it was 2.26 µM.

Consider `NC(Cc1cccnn1)C(=O)O` (stereo not drawn), for which the TGI with HCC-2998 colon is greater than 100000 nM; with HCT-15 colon, greater than 100 µM; with HS 578T breast it was greater than 100 µM; in the assay on MCF7 breast, greater than 100 µM; with MDA-MB-231 breast, greater than 100 µM; in the assay with OVCAR-5 ovarian it was greater than 100 µM. For the same molecule, the TGI in the assay on SF-295 CNS, with SK-MEL-28 melanoma, in the assay on SK-MEL-5 melanoma and in the assay with TK-10 renal was greater than 100 µM in each case.

For the molecule `Oc1ccc(Cl)cc1Sc1cc(Cl)ccc1O`, the GI50 in the assay on HCC-2998 colon is 3920 nM; in the assay with HCT-15 colon it was 3190 nM; with MCF7 breast it was 3330 nM; in the assay with MDA-MB-231 breast, 2720 nM; in the assay with OVCAR-5 ovarian, 3120 nM; in the assay on SF-295 CNS, 2370 nM. Further, the GI50 in the assay on SK-MEL-28 melanoma was 4670 nM; in the assay with SK-MEL-5 melanoma it was 1920 nM; in the assay on TK-10 renal, 8020 nM. In addition, the TGI in the assay on HCC-2998 colon is 14800 nM; in the assay on HCT-15 colon, 45.5 µM and 11.4 µM; in the assay on HS 578T breast, 29.7 µM; in the assay on MCF7 breast, 34.5 µM and 10.7 µM; in the assay on MDA-MB-231 breast it was 31.7 µM and 7.71 µM; in the assay with OVCAR-5 ovarian, 34.3 µM and 12.7 µM. In addition, the TGI in the assay with SF-295 CNS is 30.9 µM and 6.43 µM; in the assay with SK-MEL-28 melanoma, 26.3 µM and 15.3 µM; in the assay on SK-MEL-5 melanoma, 15.7 µM and 4.06 µM; in the assay on TK-10 renal it was 31.3 µM and 31.1 µM.

Take `C=C1C(=O)O[C@H]2[C@H]1CC/C(COC(=O)CCCCCCCC(=O)OC/C1=C/CC[C@@]3(C)O[C@H]3[C@H]3OC(=O)C(=C)[C@@H]3CC1)=C\CC[C@@]1(C)O[C@@H]21`: the GI50 with HCC-2998 colon is 1900 nM; in the assay with HCT-15 colon, 1750 nM; in the assay with HS 578T breast, 3840 nM; in the assay on MDA-MB-231 breast, 1980 nM; with OVCAR-5 ovarian it was 2480 nM; in the assay on SF-295 CNS it was 3600 nM. The GI50 in the assay with SK-MEL-28 melanoma is 2940 nM; with SK-MEL-5 melanoma, 1980 nM; in the assay with TK-10 renal it was 2940 nM. For the same molecule, the TGI with HCC-2998 colon came to 3880 nM; in the assay with HCT-15 colon, 4.16 µM; with HS 578T breast, 27.3 µM; in the assay with MDA-MB-231 breast it was 4.61 µM; in the assay on OVCAR-5 ovarian, 7.01 µM; in the assay on SF-295 CNS, 15.2 µM. In addition, the results for the TGI with SK-MEL-28 melanoma, with SK-MEL-5 melanoma and with TK-10 renal were 11.4 µM, 4.1 µM and 7.03 µM, respectively.

As for `CC(C)c1[nH]nc2c(NCc3ccc(-c4ccccn4)cc3)nc(SCCN)nc12`, the GI50 in the assay with HCC-2998 colon was 25 nM; with HCT-15 colon it was 672 nM and 683 nM; in the assay with HS 578T breast it was 15.1 nM; in the assay on MCF7 breast, 4.01 nM; in the assay with MDA-MB-231 breast it was 4.92 nM; in the assay with OVCAR-5 ovarian, 47.2 nM and 38.5 nM. The GI50 in the assay on SF-295 CNS is 39.1 nM and 42.5 nM; with SK-MEL-28 melanoma it was 19.7 nM and 12.4 nM; with TK-10 renal, 155 nM. The TGI in the assay with HCC-2998 colon was 1080 nM; in the assay on HCT-15 colon, 10.9 µM; in the assay on MCF7 breast it was 2.28 µM and 10.2 µM; with MDA-MB-231 breast it was 0.205 µM and 0.212 µM; in the assay with OVCAR-5 ovarian it was 12.8 µM; with SF-295 CNS, 0.712 µM and 2.03 µM. The TGI in the assay on SK-MEL-28 melanoma was 0.171 µM and 0.239 µM; in the assay with TK-10 renal, 10.1 µM.
